Experiments:
MDA-MB-231 cells = assay: Cell cycle analysis; format: cell-based; settings: MDA-MB-231, 100 and 250 nM
Protocol: (§1) MDA-MB-231 and T47D cells were seeded into 6-well plates and allow to grow until 60% confluent. The cells were then washed with PBS and the media was replaced with serum-free media overnight. After serum starvation the cells were treated with serum containing media in the presence or absence of 100 and 250 nM THZ1 for 24 and 48 hours. The cells were collected, fixed in ethanol overnight and cell cycle distribution was measured using DAPI on the LSR2 (Beckman-Dickinson).

T47D cells = assay: Cell cycle analysis; format: cell-based; settings: 100 and 250 nM, 24 or 48 hours
Protocol: as §1

Question: `CN(C)C/C=C/C(=O)Nc1ccc(C(=O)Nc2cccc(Nc3ncc(Cl)c(-c4c[nH]c5ccccc45)n3)c2)cc1` [THZ1] was tested. Which cell cycle distribution (MDA-MB-231 cells; 24 hours) did it give?
Answer: G1 arrest

Question: What about the cell cycle distribution (MDA-MB-231 cells; 48 hours) of the same compound?
Answer: increased sub-G1 (apoptotic cell) accumulation

Question: And the cell cycle distribution (T47D cells)?
Answer: G1 arrest

— patent publication US10913983B2, “Sensitivity markers and uses for CDK7 inhibitors in breast cancers” (UNIVERSITY OF SOUTH CAROLINA, priority 2017, dated 2021)
